Measurements reported in patent publication US20220298115A1, “SMALL MOLECULE INHIBITORS OF ACETYL COENZYME A SYNTHETASE SHORT CHAIN 2 (ACSS2)” (Curadev Pharma Pvt. Ltd., priority 2019, published 2022).

How the values were obtained:
human ACSS2 = target: T1, human ACSS2 (Homo sapiens, UniProt Q9NR19); test: ACSS2 enzyme assay (acetyl-CoA formation, LC-MS/MS); format: biochemical; details: cytosolic fraction of BT474 cells as ACSS2 source; 100 μM acetate, CoA and ATP; 2 h at 25° C.; read-out: Enzyme Activity (IC50 range)
T1 construct: The cytosolic fraction of BT474 cells was used as a source of the ACSS2 enzyme; endogenous in cells; host or cells: BT474 cells (cytosolic fraction)
In short: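 Enzyme source was BT474 cytosolic fraction (100 ng), preincubated 5 min with compound in 25 mM Tris-HCl pH7.4, 1 mM MgCl2, 1 mM DTT, 0.05% Tween20, 1% DMSO. Reaction started with 100 μM each of acetate, CoA and ATP, 2 h at 25 °C, stopped with TCA; acetyl-CoA quantified by LC-MS/MS.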

[1] = tested on: [14C] acetate incorporation in macromolecules, BT474 cells; test: Cell based [14C] acetate incorporation assay; details: Homo sapiens, BT-474, 3 h at 37° C., read-out: Cellular Activity (IC50 range)
In short: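 BT474 cells (4×10^4/well, plated overnight) were preincubated with compound for 10 min at 37°C in HBSS. They were then given 0.1 μCi [14C]acetate plus 10 μM unlabelled acetate (both in the added acetate solution) for 3 h at 37°C, 5% CO2. Label incorporated into macromolecules was harvested onto PEI-treated filters and counted by scintillation.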

T1 sequence (Q9NR19 whole entry): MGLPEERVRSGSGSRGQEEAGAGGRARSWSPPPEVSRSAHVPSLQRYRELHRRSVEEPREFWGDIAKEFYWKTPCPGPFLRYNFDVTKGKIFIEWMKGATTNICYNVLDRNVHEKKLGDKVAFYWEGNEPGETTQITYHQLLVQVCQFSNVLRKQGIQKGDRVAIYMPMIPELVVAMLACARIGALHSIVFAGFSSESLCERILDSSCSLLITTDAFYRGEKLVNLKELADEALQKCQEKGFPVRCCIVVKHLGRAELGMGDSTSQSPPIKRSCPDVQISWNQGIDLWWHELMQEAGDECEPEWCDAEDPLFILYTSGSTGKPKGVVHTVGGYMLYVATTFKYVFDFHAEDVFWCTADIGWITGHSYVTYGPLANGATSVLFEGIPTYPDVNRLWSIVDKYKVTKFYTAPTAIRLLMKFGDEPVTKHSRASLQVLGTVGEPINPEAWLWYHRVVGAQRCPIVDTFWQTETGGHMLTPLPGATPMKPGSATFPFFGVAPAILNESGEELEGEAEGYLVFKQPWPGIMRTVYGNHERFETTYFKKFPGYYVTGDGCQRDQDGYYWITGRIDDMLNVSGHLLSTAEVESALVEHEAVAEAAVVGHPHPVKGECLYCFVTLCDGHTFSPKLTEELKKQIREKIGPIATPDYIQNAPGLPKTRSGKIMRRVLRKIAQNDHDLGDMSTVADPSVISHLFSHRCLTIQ

| Compound | IC50 (human ACSS2) [nM] | IC50 [1] [nM] |
| --- | --- | --- |
| CCC(O)CNC(=O)Nc1ccc2nc(C)c(-c3cnn(C)c3)cc2c1 (stereo not shown) [Example 82, 1-(2-hydroxybutyl)-3-(2-methyl-3-(1-methyl-1H-pyrazol-4-yl)quinolin-6-yl)urea] | ≤ 1000 | > 10000 |
| CCC(O)CNC(=O)Nc1ccc2nc(-c3ccccc3)c(-c3ccccc3)c(NC(C)=O)c2c1 (stereo not shown) [Example 84, N-(6-(3-(2-hydroxybutyl)ureido)-2,3-diphenylquinolin-4-yl)acetamide] | < 100 | < 100 |
| CCC(O)CNC(=O)Nc1ccc2nc(C(F)(F)F)c(-c3ccccc3)cc2c1 (stereo not shown) [Example 88, 1-(2-hydroxybutyl)-3-(3-phenyl-2-(trifluorometh-yl)quinolin-6-yl)urea] | ≤ 10000 | > 10000 |
| CCC(O)CNC(=O)Nc1ccc2nc(-c3ccccc3)c(-c3ccccc3)c(N(C)C)c2c1 (stereo not shown) [Example 91, 1-(4-(dimethylamino)-2,3-diphenylquinolin-6-yl)-3-(2-hydroxybutyl) urea] | < 100 | < 100 |
| CC[C@@H](O)CNC(=O)Nc1ccc2nc(-c3ccccc3)c(-c3ccccc3)c(NC(=O)C3CC3)c2c1 [Example 92, (R)-N-(6-(3-(2-hydroxybutyl)ureido)-2,3-diphenylquinolin-4-yl)cyclopropane-carboxamide] | < 100 | < 100 |
| CCC(O)CNC(=O)Nc1ccc2nc(-c3ccccc3)c(-c3ccccc3)c(NS(C)(=O)=O)c2c1 (stereo not shown) [Example 94, N-(6-(3-(2-Hydroxybutyl)ureido)-2,3-diphenylquinolin-4-yl)methanesulfonamide] | < 100 | < 100 |
| CCC(O)CNC(=O)Nc1ccc2nc(-c3ccccc3)c(-c3ccccc3)c(N)c2c1 (stereo not shown) [Example 95, 1-(4-Amino-2,3-diphenylquinolin-6-yl)-3-(2-hydroxybutyl)urea] | < 100 | < 100 |
| CCC(O)CNC(=O)Nc1ccc2nc(-c3ccccc3)c(-c3ccccc3)c(-c3ncco3)c2c1 (stereo not shown) [Example 97, 1-(2-hydroxybutyl)-3-(4-(oxazol-2-yl)-2,3-diphenylquinolin-6-yl)urea] | < 100 | < 100 |
| CCC(CNC(=O)Nc1ccc2nc(C)c(-c3ccccc3)cc2c1)NC(C)=O (stereo not shown) [Example 99, N-(1-(3-(2-methyl-3-phenylquinolin-6-yl)ureido)butan-2-yl)acetamide] | ≤ 1000 | ≤ 1000 |
| CC[C@@H](O)CNC(=O)Nc1ccc2nc(-c3ccccc3)c(-c3ccccc3)c(OC)c2c1 [Example 101, (R)-1-(2-Hydroxybutyl)-3-(4-methoxy-2,3-diphenylquinolin-6-yl)urea] | < 100 | < 100 |
| CC[C@@H](O)CNC(=O)Nc1ccc2nc(-c3ccccc3)c(C)c(C(=O)NCc3ccccc3)c2c1 [Example 104, (R)-N-benzyl-6-(3-(2-hydroxybutyl)ureido)-3-methyl-2-phenylquinoline-4-carboxamide] | < 100 | < 100 |
| CCC(F)(F)CNC(=O)Nc1ccc2nc(C)c(-c3ccccc3)cc2c1 [Example 105, 1-(2,2-difluorobutyl)-3-(2-methyl-3-phenylquinolin-6-yl)urea] | < 100 | < 100 |
| CCC(F)(F)CNC(=O)Nc1ccc2nc(-c3ccccc3)c(-c3ccccc3)c(C(N)=O)c2c1 [Example 106, 6-(3-(2,2-difluorobutyl)ureido)-2,3-diphenylquino-line-4-carboxamide] | < 100 | < 100 |
| CCC(F)(F)CNC(=O)Nc1ccc2nc(-c3ccccc3)c(-c3ccccc3)cc2c1 [Example 107, 1-(2,2-difluorobutyl)-3-(2,3-diphenylquinolin-6-yl)urea] | < 100 | < 100 |
| CC[C@@H](O)CNC(=O)Nc1ccc2nc(-c3ccccc3)c(C)c(C(=O)NC)c2c1 [Example 108, (R)-6-(3-(2-hydroxybutyl)ureido)-N,3-dimethyl-2-phenylquinoline-4-carboxamide] | < 100 | < 100 |
| CC[C@@H](O)CNC(=O)Nc1ccc2nc(-c3ccccc3)c(C)c(C(N)=O)c2c1 [Example 109, (R)-6-(3-(2-hydroxybutyl)ureido)-3-methyl-2-phenylquinoline-4-carboxamide] | < 100 | ≤ 1000 |
| CC[C@@H](O)CNC(=O)Nc1ccc2nc(-c3ccccc3)c(-c3ccccc3)c(C(=O)Nc3ccn(C)n3)c2c1 [Example 112, (R)-6-(3-(2-hydroxybutyl)ureido)-N-(1-methyl-1H-pyrazol-3-yl)-2,3-diphenylquino-line-4-carboxamide] | < 100 | < 100 |
| CC[C@@H](O)CNC(=O)Nc1ccc2nc(-c3ccccc3)c(C)c(C(=O)NCc3cnn(C)c3)c2c1 [Example 114, (R)-6-(3-(2-hydroxybutyl)ureido)-3-methyl-N-((1-methyl-1H-pyrazol-4-yl)methyl)-2-phenylquinoline-4-carboxamide] | < 100 | ≤ 1000 |

Results, then the compound that gave them:

| IC50 (human ACSS2) [nM] | IC50 [1] [nM] | Compound |
| --- | --- | --- |
| < 100 | < 100 | CCC(O)CNC(=O)Nc1ccc2nc(C)c(-c3ccccc3C)cc2c1 (stereo not shown) [Example 80, 1-(2-hydroxybutyl)-3-(2-methyl-3-(o-tolyl)quinolin-6-yl)urea] |
| < 100 | < 100 | CCC(O)CNC(=O)Nc1ccc2nc(C)c(-c3ccccc3Cl)cc2c1 (stereo not shown) [Example 81, 1-(3-(2-chlorophenyl)-2-methylquinolin-6-yl)-3-(2-hydroxybutyl) urea] |
| < 100 | < 100 | CC[C@@H](O)CNC(=O)Nc1ccc2nc(C)c(-c3ccccc3C)cc2c1 [Example 83, (R)-1-(2-hydroxybutyl)-3-(2-methyl-3-(o-tolyl)quinolin-6-yl)urea] |
| < 100 | < 100 | CCC(O)CNC(=O)Nc1ccc2nc(C)c(-c3ccccc3)cc2c1C (stereo not shown) [Example 85, 1-(2,5-dimethyl-3-phenylquinolin-6-yl)-3-(2-hydroxybutyl) urea] |
| < 100 | < 100 | CCC(O)CNC(=O)Nc1ccc2nc(C)c(-c3ccccc3)cc2c1C1CC1 (stereo not shown) [Example 86, 1-(5-cyclopropyl-2-methyl-3-phenylquinolin-6-yl)-3-(2-hydroxybutyl) urea] |
| < 100 | < 100 | CCC(O)CNC(=O)Nc1ccc2nc(C)c(-c3ccccc3)cc2c1Br (stereo not shown) [Example 87, 1-(5-bromo-2-methyl-3-phenylquinolin-6-yl)-3-(2-hydroxybutyl) urea] |
| ≤ 1000 | ≤ 1000 | CC[C@H](O)CNC(=O)Nc1ccc2nc(C)c(-c3ccccc3)cc2c1 [Example 89, (S)-1-(2-hydroxybutyl)-3-(2-methyl-3-phenylquinolin-6-yl)urea] |
| ≤ 1000 | ≤ 1000 | CC[C@@H](O)CNC(=O)Nc1cc2cc(-c3ccccc3)c(-c3ccccc3)nc2cc1F [Example 90, (R)-1-(7-fluoro-2,3-diphenylquinolin-6-yl)-3-(2-hydroxybutyl) urea] |
| < 100 | ≤ 1000 | CCC(O)CNC(=O)Nc1ccc2nc(C)c(-c3ccccc3)c(NC(C)=O)c2c1 (stereo not shown) [Example 93, N-(6-(3-(2-hydroxybutyl)ureido)-2-methyl-3-phenylquinolin-4-yl)acetamide] |
| < 100 | < 100 | CC[C@@H](O)CNC(=O)Nc1ccc2nc(C)c(-c3ccccc3)cc2c1-c1cnn(C)c1 [Example 96, (R)-1-(2-hydroxybutyl)-3-(2-methyl-5-(1-methyl-1H-pyrazol-4-yl)-3-phenylquinolin-6-yl)urea] |
| ≤ 1000 | < 100 | CCC(O)CNC(=O)Nc1ccc2nc(C)c(-c3ccccc3)c(C#N)c2c1 (stereo not shown) [Example 98, 1-(4-cyano-2-methyl-3-phenylquinolin-6-yl)-3-(2-hydroxybutyl) urea] |
| < 100 | < 100 | CC[C@@H](O)CNC(=O)Nc1ccc2nc(C)c(-c3ccccc3F)cc2c1 [Example 100, (R)-1-(3-(2-fluorophenyl)-2-methylquinolin-6-yl)-3-(2-hydroxybutyl) urea] |
| < 100 | < 100 | CC[C@@H](O)CNC(=O)Nc1ccc2nc(C)c(-c3ccccc3)c(OC)c2c1 [Example 102, (R)-1-(2-hydroxybutyl)-3-(4-methoxy-2-methyl-3-phenylquinolin-6-yl)urea] |
| < 100 | < 100 | CC[C@@H](O)CNC(=O)Nc1ccc2nc(-c3ccccc3)c(-c3ccccc3)c(C)c2c1 [Example 103, (R)-1-(2-hydroxybutyl)-3-(4-methyl-2,3-diphenylquinolin-6-yl)urea] |
| < 100 | < 100 | CCC(F)(F)CNC(=O)Nc1ccc2nc(C)c(-c3ccccc3F)cc2c1 [Example 110, 1-(2,2-difluorobutyl)-3-(3-(2-fluorophenyl)-2-methylquinolin-6-yl)urea] |
| < 100 | ≤ 1000 | CC[C@@H](O)CNC(=O)Nc1ccc2nc(C)c(-c3ccccc3F)cc2c1-c1ccc[nH]c1=O [Example 111, (R)-1-(3-(2-fluorophenyl)-2-methyl-5-(2-oxo-1,2-dihydropyridin-3-yl)quinolin-6-yl)-3-(2-hydroxybutyl) urea] |
| < 100 | < 100 | CC[C@@H](O)CNC(=O)Nc1ccc2nc(C)c(-c3ccccc3)c(C)c2c1 [Example 113, (R)-1-(2,4-dimethyl-3-phenylquinolin-6-yl)-3-(2-hydroxybutyl) urea] |
